In ChEMBL document CHEMBL5726951, “Small molecule inhibitors of the JAK family of kinases” (2019):

Tests used:
[1] = target: Non-receptor tyrosine-protein kinase TYK2 (Homo sapiens, UniProt P29597, C1142A/C936A); test: (§1) Enzymatic Inhibition Assay: Substrate (NH2-[…]-CO2), internal standard peptide (NH2-[…]-CO2) and product peptide (for standard curve only) (NH2-[…]-Pi-FELVKK-CO2), were purchased from AnaSpec (Fremont, Calif., USA). JAK1-JH1JH2 (574-1154 with a His-GST Tag and a C-terminal tev (ENLYFQ-G) cleavage site), JAK3-JH1JH2 (512-1124 with a GST Tag and a C-terminal tev (ENLYFQ-G) cleavage site), and Tyk2-JH1JH2 (8H_tev_580-1182-C936A-C1142A with a C-terminal tev (ENLYFQ-G) cleavage site) were purified internally. JAK2-JH1JH2 (532-1132 with a GST tag and C-terminal tev (ENLYFQ-G) cleavage site), was purchased from Invitrogen. LC/MS grade water and acetonitrile (ACN), were purchased from HoneyWell, Burdick & Jackson (Muskegon, Mich., USA). Dimethylsulfoxide 99.8% (DMSO) and trifluoroacetic acid 99.5% (TFA) were purchased from EMD Chemical (Gibbstown, N.J., USA). Adenosine triphosphate (ATP), 4-morpholinepropanesulfonic acid (MOPS), magnesium chloride (MgCl2), ethylenediaminetetraacetic acid (EDTA), dithiothreitol (DTT), formic acid>95% (FA) and Tween-20 were purchased from Sigma (St Louis, Mo., USA). 384-well polypropylene plates, Cat#781280 were purchased from Greiner (Monroe, N.C.), RapidFire™ cartridge A C4 Column (Agilent Technologies, Santa Clara, Calif.).The HTMS experiments were performed in positive ionization mode on a RapidFire 300 instrument (Agilent Technologies, Santa Clara, Calif.), coupled with an ABSiex QTrap 4000 system with an Electrospray Ionization source (RF-MS) (Concord, ON, Canada). The RapidFire system was run with 3 Agilent 1200 series isocratic pumps Agilent Technologies (Santa Clara, Calif.) and one peristaltic pump model ISM832C from Ismatec (Wertheim, Germany). The entire system was operated using the RapidFire software interfaced with Analyst software for the mass spectrometer.Assay Protocol11-point dosing series were made for each compound by serially diluting 1:3 or 1:4 in DMSO, with point 12 being a DMSO control. From the serial dilution plates, sample was transferred to a 384 wells assay plate (#781280, Greiner, Monroe, N.C.) using Labcyte Echo (Sunnyvale, Calif.), or Biosero ATS (San Diego, Calif.). The compounds were tested in duplicate. Column 12 was used for positive controls, and column 24 contained negative controls with no enzyme added. A compound from our internal collection, with inhibitory activity for JAK isoforms, was used as a reference compound. The final concentration of DMSO was ≤0.25% in a 20 μL reaction. The enzyme reaction was initiated by the addition of 10 μL of enzyme and ATP mixture to 10 μL of substrate solution prepared in reaction buffer (50 mM MOPS pH 7.5, 10 mM MgCl2, 1 mM EDTA, 2 mM DTT, 0.002% Tween-20). The Tyk2 enzyme was pre-incubated with 2 mM ATP for 30 min prior to the reaction initiation. Immediately after the addition of the enzyme to the reaction mixture, the plate was centrifuged at 1000 rpm for 1 minute and incubated at 25° C. for 45 minutes for JAK3 and 90 minutes for JAK1, JAK2 and Tyk2. The reaction was quenched by the addition of 20 μL of 0.5% TFA containing 0.15 μM of internal standard peptide using Multidrop Combi reagent dispenser (Thermo Scientific, Waltham, Mass.). Several wells in column 24 were typically used for the product standard curve. After the quench, the assay plate was centrifuged at 3000 rpm for 3 minutes and sealed with pierceable aluminum foil (Cat#06644-001, Agilent) using a PlateLoc (Agilent Technologies, Santa Clara, Calif.). The plates then were transferred on to the RapidFire for the MS analysis. Compound inhibition was assessed by a decrease of the phosphorylated product levels in sample wells compared to the non-inhibited enzyme reaction.
Sequence of Non-receptor tyrosine-protein kinase TYK2 (P29597 whole entry C936A/C1142A): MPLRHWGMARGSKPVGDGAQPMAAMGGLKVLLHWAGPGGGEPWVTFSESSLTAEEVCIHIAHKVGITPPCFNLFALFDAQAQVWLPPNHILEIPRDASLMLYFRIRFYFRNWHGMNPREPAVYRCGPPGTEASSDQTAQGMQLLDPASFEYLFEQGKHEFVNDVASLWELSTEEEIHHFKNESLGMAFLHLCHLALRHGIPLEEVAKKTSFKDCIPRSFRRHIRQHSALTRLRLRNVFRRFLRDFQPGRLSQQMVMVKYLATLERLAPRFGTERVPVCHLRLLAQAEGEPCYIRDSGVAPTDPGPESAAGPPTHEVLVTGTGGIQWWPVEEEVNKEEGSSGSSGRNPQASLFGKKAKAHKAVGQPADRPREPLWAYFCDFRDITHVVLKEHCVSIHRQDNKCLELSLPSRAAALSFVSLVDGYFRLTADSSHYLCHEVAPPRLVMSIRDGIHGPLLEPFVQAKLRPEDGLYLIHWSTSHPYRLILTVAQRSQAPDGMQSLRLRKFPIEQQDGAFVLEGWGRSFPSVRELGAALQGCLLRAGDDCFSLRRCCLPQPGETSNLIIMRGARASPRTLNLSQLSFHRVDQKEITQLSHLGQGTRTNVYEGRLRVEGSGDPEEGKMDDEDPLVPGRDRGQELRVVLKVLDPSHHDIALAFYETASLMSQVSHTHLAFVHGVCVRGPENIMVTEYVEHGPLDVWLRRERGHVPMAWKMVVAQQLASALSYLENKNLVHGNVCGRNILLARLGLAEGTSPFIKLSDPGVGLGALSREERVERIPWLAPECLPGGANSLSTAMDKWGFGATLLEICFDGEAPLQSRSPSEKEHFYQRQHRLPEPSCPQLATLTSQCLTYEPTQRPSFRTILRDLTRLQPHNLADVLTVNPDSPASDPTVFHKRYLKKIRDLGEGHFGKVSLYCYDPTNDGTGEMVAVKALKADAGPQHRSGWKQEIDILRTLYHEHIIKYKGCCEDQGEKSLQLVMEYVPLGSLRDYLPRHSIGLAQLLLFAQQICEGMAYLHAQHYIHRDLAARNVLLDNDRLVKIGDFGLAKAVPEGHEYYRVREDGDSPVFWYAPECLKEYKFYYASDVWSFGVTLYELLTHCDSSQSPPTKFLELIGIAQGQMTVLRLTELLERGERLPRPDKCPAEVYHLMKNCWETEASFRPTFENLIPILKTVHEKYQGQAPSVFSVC

[2] = target: Tyrosine-protein kinase JAK1 (Homo sapiens, UniProt P23458); test: as §1
Sequence of Tyrosine-protein kinase JAK1 (P23458 whole entry): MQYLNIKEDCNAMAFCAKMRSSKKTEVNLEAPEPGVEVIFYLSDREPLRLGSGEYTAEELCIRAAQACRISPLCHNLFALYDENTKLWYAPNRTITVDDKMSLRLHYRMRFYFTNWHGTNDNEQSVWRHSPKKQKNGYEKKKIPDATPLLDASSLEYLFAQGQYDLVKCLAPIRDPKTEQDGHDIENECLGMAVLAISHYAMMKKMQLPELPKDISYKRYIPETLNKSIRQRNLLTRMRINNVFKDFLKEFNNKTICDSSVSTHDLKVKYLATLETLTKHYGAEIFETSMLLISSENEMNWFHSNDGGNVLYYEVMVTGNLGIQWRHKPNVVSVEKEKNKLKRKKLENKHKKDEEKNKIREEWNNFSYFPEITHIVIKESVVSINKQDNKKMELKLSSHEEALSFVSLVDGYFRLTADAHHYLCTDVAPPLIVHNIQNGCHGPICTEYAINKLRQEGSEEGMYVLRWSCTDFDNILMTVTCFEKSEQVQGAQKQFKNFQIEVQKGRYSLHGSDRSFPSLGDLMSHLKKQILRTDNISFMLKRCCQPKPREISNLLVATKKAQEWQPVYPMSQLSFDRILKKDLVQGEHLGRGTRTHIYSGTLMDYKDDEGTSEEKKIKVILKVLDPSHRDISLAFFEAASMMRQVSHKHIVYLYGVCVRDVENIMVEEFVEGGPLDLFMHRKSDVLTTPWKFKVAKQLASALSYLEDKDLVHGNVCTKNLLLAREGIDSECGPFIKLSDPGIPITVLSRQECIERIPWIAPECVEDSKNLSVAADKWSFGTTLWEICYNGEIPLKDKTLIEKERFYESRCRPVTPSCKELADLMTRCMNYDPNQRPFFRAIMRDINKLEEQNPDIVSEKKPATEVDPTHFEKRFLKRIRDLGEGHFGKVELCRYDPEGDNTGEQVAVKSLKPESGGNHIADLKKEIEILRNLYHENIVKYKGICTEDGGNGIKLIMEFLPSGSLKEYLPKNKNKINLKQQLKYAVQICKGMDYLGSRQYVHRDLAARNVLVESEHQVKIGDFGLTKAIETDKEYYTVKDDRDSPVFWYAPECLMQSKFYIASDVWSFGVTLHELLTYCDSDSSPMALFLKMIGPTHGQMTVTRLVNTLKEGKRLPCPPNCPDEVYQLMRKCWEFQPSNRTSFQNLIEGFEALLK

[3] = target: T1, Tyrosine-protein kinase JAK3 (Homo sapiens, UniProt P52333); test: as §1
T1 sequence (P52333 whole entry): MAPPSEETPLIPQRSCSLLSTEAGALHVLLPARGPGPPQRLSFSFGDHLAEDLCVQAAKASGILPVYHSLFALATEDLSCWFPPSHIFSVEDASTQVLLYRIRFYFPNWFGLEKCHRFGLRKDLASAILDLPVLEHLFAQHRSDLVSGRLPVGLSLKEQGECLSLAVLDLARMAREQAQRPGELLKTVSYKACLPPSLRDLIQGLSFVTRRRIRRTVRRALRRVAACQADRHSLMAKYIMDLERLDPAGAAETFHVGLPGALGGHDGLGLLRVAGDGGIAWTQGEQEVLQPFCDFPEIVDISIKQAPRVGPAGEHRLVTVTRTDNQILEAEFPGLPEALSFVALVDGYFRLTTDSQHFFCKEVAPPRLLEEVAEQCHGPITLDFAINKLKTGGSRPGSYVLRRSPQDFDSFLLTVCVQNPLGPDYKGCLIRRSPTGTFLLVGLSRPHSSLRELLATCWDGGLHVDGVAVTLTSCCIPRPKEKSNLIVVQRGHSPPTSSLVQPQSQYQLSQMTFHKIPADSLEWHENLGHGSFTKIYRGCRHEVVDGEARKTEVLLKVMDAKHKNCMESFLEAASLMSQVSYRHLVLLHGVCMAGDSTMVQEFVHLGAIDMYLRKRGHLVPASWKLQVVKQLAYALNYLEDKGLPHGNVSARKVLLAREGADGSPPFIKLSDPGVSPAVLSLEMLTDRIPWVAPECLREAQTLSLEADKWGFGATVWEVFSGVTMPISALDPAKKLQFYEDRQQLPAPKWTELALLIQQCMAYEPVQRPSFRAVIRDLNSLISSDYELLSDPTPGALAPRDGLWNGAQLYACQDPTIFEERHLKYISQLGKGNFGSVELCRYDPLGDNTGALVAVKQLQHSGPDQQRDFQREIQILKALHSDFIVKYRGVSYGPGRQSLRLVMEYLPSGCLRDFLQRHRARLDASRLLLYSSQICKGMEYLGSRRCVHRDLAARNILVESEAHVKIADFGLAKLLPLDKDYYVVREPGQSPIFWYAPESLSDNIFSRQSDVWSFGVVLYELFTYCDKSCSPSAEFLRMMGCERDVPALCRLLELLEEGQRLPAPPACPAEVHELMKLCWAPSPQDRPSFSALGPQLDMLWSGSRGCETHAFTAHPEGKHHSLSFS

[4] = target: Tyrosine-protein kinase JAK2 (Homo sapiens, UniProt O60674); test: LC/MS grade water and acetonitrile (ACN), were purchased from HoneyWell, Burdick & Jackson (Muskegon, Mich., USA). […] The compounds were tested in duplicate. Column 12 was used for positive controls, and column 24 contained negative controls with no enzyme added. A compound from our internal collection, with inhibitory activity for JAK isoforms, was used as a reference compound. […] The enzyme reaction was initiated by the addition of 10 μL of enzyme and ATP mixture to 10 μL of substrate solution prepared in reaction buffer (50 mM MOPS pH 7.5, 10 mM MgCl2, 1 mM EDTA, 2 mM DTT, 0.002% Tween-20). The Tyk2 enzyme was pre-incubated with 2 mM ATP for 30 min prior to the reaction initiation. Immediately after the addition of the enzyme to the reaction mixture, the plate was centrifuged at 1000 rpm for 1 minute and incubated at 25° C. for 45 minutes for JAK3 and 90 minutes for JAK1, JAK2 and Tyk2. […] The plates then were transferred on to the RapidFire for the MS analysis. Compound inhibition was assessed by a decrease of the phosphorylated product levels in sample wells compared to the non-inhibited enzyme reaction.
Sequence of Tyrosine-protein kinase JAK2 (O60674 whole entry, canonical isoform): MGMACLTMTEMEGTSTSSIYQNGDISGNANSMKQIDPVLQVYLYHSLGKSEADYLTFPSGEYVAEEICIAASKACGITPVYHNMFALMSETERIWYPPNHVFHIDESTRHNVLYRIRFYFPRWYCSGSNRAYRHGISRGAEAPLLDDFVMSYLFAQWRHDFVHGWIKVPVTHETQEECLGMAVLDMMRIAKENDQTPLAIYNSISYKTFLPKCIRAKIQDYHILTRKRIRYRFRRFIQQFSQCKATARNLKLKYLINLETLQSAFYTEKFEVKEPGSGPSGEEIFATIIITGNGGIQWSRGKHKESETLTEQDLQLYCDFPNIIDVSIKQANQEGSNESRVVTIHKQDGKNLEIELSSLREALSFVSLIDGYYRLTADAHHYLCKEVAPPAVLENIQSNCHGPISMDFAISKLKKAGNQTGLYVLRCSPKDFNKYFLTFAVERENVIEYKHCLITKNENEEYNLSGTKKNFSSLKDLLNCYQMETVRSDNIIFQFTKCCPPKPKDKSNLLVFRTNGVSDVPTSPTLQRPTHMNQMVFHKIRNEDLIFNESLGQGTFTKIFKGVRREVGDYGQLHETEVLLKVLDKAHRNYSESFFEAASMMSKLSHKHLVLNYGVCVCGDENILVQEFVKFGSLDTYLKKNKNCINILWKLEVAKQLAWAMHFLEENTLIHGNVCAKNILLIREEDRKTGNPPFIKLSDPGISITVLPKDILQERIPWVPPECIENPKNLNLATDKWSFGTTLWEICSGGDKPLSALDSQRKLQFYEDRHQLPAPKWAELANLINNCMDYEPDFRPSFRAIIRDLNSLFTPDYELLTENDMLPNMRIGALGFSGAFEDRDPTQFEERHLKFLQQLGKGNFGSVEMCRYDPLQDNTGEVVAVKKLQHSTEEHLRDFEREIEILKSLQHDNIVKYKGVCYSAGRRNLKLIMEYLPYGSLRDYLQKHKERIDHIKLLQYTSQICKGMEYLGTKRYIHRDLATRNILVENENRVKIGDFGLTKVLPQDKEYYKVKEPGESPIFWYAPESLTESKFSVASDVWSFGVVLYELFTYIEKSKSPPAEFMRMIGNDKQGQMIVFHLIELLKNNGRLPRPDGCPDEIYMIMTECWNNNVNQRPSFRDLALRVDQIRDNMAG

Row | SMILES | IC50 [1] | IC50 [2] | IC50 [3] | IC50 [4]
1 | N#CC[C@H]1CC[C@H](n2c(CO)nc3cnc4[nH]ccc4c32)CC1 | < 0.2 nM | < 0.2 nM | 13.4 nM | < 0.2 nM
2 | Cc1nc2cnc3[nH]ccc3c2n1[C@H]1CC[C@H](CC#N)CC1 | 0.9 nM | < 0.2 nM | 12.4 nM | < 0.2 nM
